{"source": "patent US5252559A", "about": "“His-Gly-Gly peptide and derivatives thereof for hair growth” (The Procter & Gamble Company, priority 1991, dated 1993)", "test_system": "male C3H mice", "assay": "C3H Mouse Model, topical study of hair growth", "assay_type": "in vivo", "description": "The effect of the compounds of the present invention on hair growth is assessed using male C3H mice (Harlan Sprague Dawley, Inc., Indianapolis, Ind.) as an animal model. The mice are 52 days old at the time of first does. They are individually housed in \"shoe box\" cages (Scientific Products, Chicago, Ill.). Ten mice are used per test group.\nNot more than four hours before treatment, the animals are anesthetized with an intraperitoneal mixture of acepromazine maleate (1.6 mg/kg), xylazine (4.8 mg/kg) and ketamine hydrochloride (64 mg/kg) dosed in a saline vehicle in a total volume of 0.2 ml per 25 g mouse. The entire back of the animal is clipped closely with a small animal clipper (Wahl model 8900, Wahl Clipper Corp., Sterling, Ill.). […]\nOn days of photography, the animals are photographed prior to dosing. […] Results are expressed as the percent of shaved area responding with anagen skin, and the percent of shaved area responding with hair growth.\nA positive response, i.e., an increase of greater than 10% over control, indicates the potential of the test compound to regulate hair growth. Accordingly, when hair growth peptides as herein defined, are assessed either individually or in combination as a test compound in the C3H Mouse Model, an increase over control of at least 10%, preferably 40%, more preferably 70%, after four weeks treatment will be obtained. […]", "note": "Peptide text beside a SMILES is read from it."}
{"molecule": "N[C@@H](Cc1c[nH]cn1)C(=O)NCC(=O)NCC(=O)O", "note": "[His-Gly-Gly, Histidyl-glycyl-glycine] (H-His-Gly-Gly-OH)", "values": [{"measurement": "mean percent of shaved area that is covered with hair at Day 25", "setting": "topical, 1.0% in Tris buffer/propylene glycol/glycerine (67/30/3, pH 8.0) vehicle, after 4 weeks of treatment, mean of 10 mice", "result": 44.3, "unit": "%"}, {"measurement": "increase in hair growth", "setting": "versus vehicle control, Day 25, topical 1.0%", "result": 96, "unit": "%"}]}
